Assay results reported in patent US20250144054A1, “SMALL MOLECULE STAT3 INHIBITOR FOR TREATING TRIPLE NEGATIVE BREAST CANCER” (UNIVERSITY OF MARYLAND, BALTIMORE, priority 2022, published 2025).

Legend:
STAT3 = assay: IL-6 induced STAT3 phosphorylation, Western blot, MDA-MB-231 cells; format: cell-based, human; conditions: pretreated 2 hours serum-free, 50 ng/ml IL-6 30 minutes
Experimental: (§1) (A) The chemical structures of LLL12B and LLL12. The carbamate ester bond of LLL12B is hydrolytically cleaved by the tumor-associated plasmin to release LLL12. (B) SUM159 cells were seeded in a 6-well plate and treated with LLL12B for 8 hours. Cells were stained with Phospho-Stat3 (Tyr705) and DAPI (indicated by arrows). Green: P-STAT3 (Y705); Blue: DAPI. T47D (C) and MDA-MB-231 (D) breast cancer cells were pretreated with DMSO or LLL12B in a serum-free medium for 2 hours and stimulated with 50 ng/ml of IL-6, IFN-γ, or EGF for additional 30 minutes. Cells were collected and analyzed by Western blot. GAPDH served as a protein loading control.
(§2) Western blot. Cells were collected and total protein was extracted using cell lysis buffer (Cell Signaling Technology, Danvers, MA, USA). Protein concentration was determined using the Pierce BCA Protein Assay Kit (Thermo Fisher Scientific, Waltham, MA, USA) according to the manufacturer's instructions. Equal amounts of protein were separated by 10% SDS-PAGE gels and transferred to PVDF membranes. Membranes were blocked in 5% non-fat milk at room temperature and probed with specific antibodies P-STAT3 (Y705), STAT3, Cyclin D1, Cleaved Caspase-3, P-STAT1 (Y701), STAT1, P-ERK, ERK or GAPDH (1:1000, Cell Signaling Technology, Danvers, MA, USA) at 4° C. overnight. […]

ERK = assay: EGF induced ERK phosphorylation, Western blot, MDA-MB-231 cells; format: cell-based, human; conditions: pretreated 2 hours, 50 ng/ml EGF 30 minutes
Experimental: as §1, §2

MDA-MB-231 cells = assay: Colony formation assay, MDA-MB-231 cells; format: cell-based, human; conditions: MDA-MB-231, 24 hours treatment, 7 days drug-free, vs DMSO
Experimental: (§3) Colony formation assay. MDA-MB-231, SUM159, and 4T1 cells were seeded in a 6-well plate at a density of 1000 cells/well and treated with DMSO or LLL12B for 24 hours, and then cultured in a drug-free culture medium for 7 days. Colonies were fixed with methanol for 30 min and stained with 1% crystal violet in 25% methanol for 2 hours at room temperature.

SUM159 cells = assay: Colony formation assay, SUM159 cells; format: cell-based, human; conditions: SUM159, 24 hours treatment, 7 days drug-free, vs DMSO
Experimental: as §3

[1] = test system: MDA-MB-231 orthotopic tumor; assay: Orthotopic mammary fat pad tumor model in vivo; parameters: species or system athymic nude mice
Experimental: Orthotopic mammary fat pad tumor model in vivo. All mice were used under guidelines approved by the IACUC of University of Maryland School of Medicine. 6-week-old female athymic nude mice were purchased from The Jackson Laboratory (Bar Harbor, ME, USA). 2.5×10^6 MDA-MB-231 cells in 50 μl matrigel (BD Science, Franklin Lakes, NJ, USA) were inoculated into the 4th mammary fat pads bilaterally. After the tumor volume reached approximately 50 mm^3, mice were randomly divided into two groups (3 mice with 6 tumors in each group). LLL12B (2.5 mg/kg) or DMSO vehicle was administered daily by oral gavage for 28 days. Tumor size was measured by the length (L) and width (W) using a caliper ruler every 2 days. Tumor volume was calculated using 0.52×L×W^2. Body weight was monitored every 2 days. At the end of the experiment, tumors were removed and weighed. Part of the tumor tissue was lysed to detect the expression of P-STAT3 (Y705), STAT3, and Cyclin DI using Western blot analysis.
Female nude mice were implanted with MDA-MB-231 cells to establish an orthotopic tumor model to further evaluate LLL12B efficacy in vivo. MDA-MB-231 cells were inoculated into the 4th mammary fat pads and tumors were allowed to develop until the volume reached approximately 50 mm^3. Vehicle control or LLL12B (2.5 mg/kg) was administered once daily by oral gavage for 28 days.

PANC-1 cells = assay: MTT cell viability assay, PANC-1 cells; format: cell-based, human; conditions: PANC-1, 3 days
Experimental: The human pancreatic cancer cell lines HPAC and PANC-1 were seeded and allowed to attach for 24 hours. Then cells were treated with different concentrations of LLL12B for 3 days and the cell viability was determined by MTT cell viability assay.

[2] = 2.5 mg/kg once daily oral gavage 28 days, vs vehicle
[3] = Western blot, 2.5 mg/kg oral 28 days

CN(C)C(=O)Oc1cccc2c1C(=O)c1cccc(S(N)(=O)=O)c1C2=O [LLL12B]
IL-6 induced phosphorylation of STAT3 (Y705) (STAT3): inhibited | inhibition of P-ERK stimulated by EGF (ERK): little effect | colony numbers (MDA-MB-231 cells): significant reduction | colony numbers (SUM159 cells): significant reduction | body weights [1, 2]: no obvious reduction | tumor volume [1, 2]: significantly reduced | tumor weight [1, 2]: reduced | Cyclin D1 expression in tumor tissues [1, 3]: suppressed | phosphorylation of STAT3 (Y705) in tumor tissues [1, 3]: suppressed | cell viability (PANC-1 cells): significantly inhibits
